System: cytokines in the blood
Assay: Plasma cytokines after intravenous infusion of TLR-7 agonists in cynomolgus monkeys
Type: in vivo, cynomolgus monkey
Details: thirty minute i.v. infusion
Description: The objective of the following study was to observe the effect of the in vivo administration of different amounts of small molecule agonists of TLR-7, N-(4-(4-amino-2-(2-methoxyethyl)-1H-imidazo[4,5-c]quinolin-1-yl)butyl)-N-(tetrahydro-2H-pyran-4-yl)acetamide (SM1) and N-(4-(4-amino-2-ethyl-1H-imidazo[4,5-c]quinolin-1-yl)butyl)-N-(1,1-dioxidothietan-3-yl)acetamide (SM3), on expression of various cytokines in the blood in a cynomolgus monkey model. The various cytokines whose expression was determined include interferon alpha, interleukin 1 receptor antagonist, interleukins 4, 6, 8, 10, 12, 15, 18, monocyte chemoattractant protein 1, granulocyte-colony stimulating factor, macrophage inflammatory protein 1 beta, tumor necrosis factor alpha, and vascular endothelial growth factor.
A defined single dose of one of the agonist compounds was administered intravenously to cynomolgus monkeys in a thirty minute infusion. […]
Cytokines levels were determined using an interferon alpha Elisa kit (e.g., VeriKine™ Cynomolgus/Rhesus IFNα ELISA Kit) and a Luminex® non-human primate cytokine/chemokine kit (e.g., Milliplex Non-Human Primate Cytokine/Chemokine Magnetic Premixed 23 Plex Panel), in accordance to the manufacturers' instructions. […]

SMILES | cytokine levels in plasma (FIGS. 10a-10kk) (male and female cynomolgus monkeys, 30, 100 or 300 μg/kg, then at 14 days 1, 3 or 10 mg/kg) | cytokine levels in plasma (FIGS. 11a-11m) (male cynomolgus monkeys, 300 μg/kg, 1, 3 and 10 mg/kg)
COCCc1nc2c(N)nc3ccccc3c2n1CCCCN(C(C)=O)C1CCOCC1 [SM1, N-(4-(4-amino-2-(2-methoxyethyl)-1H-imidazo[4,5-c]quinolin-1-yl)butyl)-N-(tetrahydro-2H-pyran-4-yl)acetamide] | production of various cytokines in a highly individual manner | –
CCc1nc2c(N)nc3ccccc3c2n1CCCCN(C(C)=O)C1CS(=O)(=O)C1 [SM3, N-(4-(4-amino-2-ethyl-1H-imidazo[4,5-c]quinolin-1-yl)butyl)-N-(1,1-dioxidothietan-3-yl)acetamide] | – | production of various cytokines in a highly individual manner

— patent US20200191798A1, “DOSE DETERMINATION FOR IMMUNOTHERAPEUTIC AGENTS” (BIONTECH RNA PHARMACEUTICALS GMBH, priority 2016, published 2020)
